Measured values published in ChEMBL document CHEMBL5058649, “Data for DCP probe BAY 1816032” (2022).
Activity calls are given as the source filed them. The calls are words filed in the database; no cut-off is given here.

Columns and labels:
[1] = biological target: Mitotic checkpoint serine/threonine-protein kinase BUB1 (Homo sapiens, UniProt O43683); test: Abrogation of histone H2A-Thr120 phosphorylation
[2] = biological target: AP2-associated protein kinase 1 (Homo sapiens) (UniProt Q2M2I8); test: AAK1 DiscoveRx kinase panel; conditions: Compound concentration 1.0 uM
[3] = biological target: Ribosomal protein S6 kinase alpha-3 (Homo sapiens) (UniProt P51812); test: RSK2(Kin.Dom.1-N-terminal) DiscoveRx kinase panel; conditions: Compound concentration 1.0 uM
[4] = biological target: Tyrosine-protein kinase Fes/Fps (Homo sapiens) (UniProt P07332); test: FES DiscoveRx kinase panel; conditions: Compound concentration 1.0 uM
[5] = biological target: Calcium/calmodulin-dependent protein kinase kinase 2 (Homo sapiens) (UniProt Q96RR4); test: CAMKK2 DiscoveRx kinase panel; conditions: Compound concentration 1.0 uM
Chain of Calcium/calmodulin-dependent protein kinase kinase 2 (Homo sapiens) (Q96RR4 2-588 limits assumed): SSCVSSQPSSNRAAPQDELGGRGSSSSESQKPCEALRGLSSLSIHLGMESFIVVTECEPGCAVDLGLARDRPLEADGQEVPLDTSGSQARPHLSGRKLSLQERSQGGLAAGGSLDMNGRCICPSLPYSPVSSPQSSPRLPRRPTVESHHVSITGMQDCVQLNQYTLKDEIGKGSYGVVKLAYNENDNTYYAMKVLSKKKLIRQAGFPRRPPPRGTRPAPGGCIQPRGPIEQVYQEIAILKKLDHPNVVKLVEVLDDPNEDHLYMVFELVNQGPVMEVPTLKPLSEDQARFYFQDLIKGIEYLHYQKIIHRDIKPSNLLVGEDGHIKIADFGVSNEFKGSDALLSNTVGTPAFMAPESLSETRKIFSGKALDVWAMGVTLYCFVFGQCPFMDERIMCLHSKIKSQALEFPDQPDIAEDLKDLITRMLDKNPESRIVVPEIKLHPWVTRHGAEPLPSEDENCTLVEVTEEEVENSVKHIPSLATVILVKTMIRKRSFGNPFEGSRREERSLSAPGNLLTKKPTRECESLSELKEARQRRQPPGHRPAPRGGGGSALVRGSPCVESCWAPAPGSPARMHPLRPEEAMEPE

[6] = biological target: Phosphatidylinositol 4,5-bisphosphate 3-kinase catalytic subunit gamma isoform (Homo sapiens) (UniProt P48736); test: PIK3CG DiscoveRx kinase panel; conditions: Compound concentration 1.0 uM
[7] = biological target: Protein-tyrosine kinase 2-beta (Homo sapiens) (UniProt Q14289); test: PYK2 DiscoveRx kinase panel; conditions: Compound concentration 1.0 uM
Chain of Protein-tyrosine kinase 2-beta (Homo sapiens) (Q14289 whole entry, looked up): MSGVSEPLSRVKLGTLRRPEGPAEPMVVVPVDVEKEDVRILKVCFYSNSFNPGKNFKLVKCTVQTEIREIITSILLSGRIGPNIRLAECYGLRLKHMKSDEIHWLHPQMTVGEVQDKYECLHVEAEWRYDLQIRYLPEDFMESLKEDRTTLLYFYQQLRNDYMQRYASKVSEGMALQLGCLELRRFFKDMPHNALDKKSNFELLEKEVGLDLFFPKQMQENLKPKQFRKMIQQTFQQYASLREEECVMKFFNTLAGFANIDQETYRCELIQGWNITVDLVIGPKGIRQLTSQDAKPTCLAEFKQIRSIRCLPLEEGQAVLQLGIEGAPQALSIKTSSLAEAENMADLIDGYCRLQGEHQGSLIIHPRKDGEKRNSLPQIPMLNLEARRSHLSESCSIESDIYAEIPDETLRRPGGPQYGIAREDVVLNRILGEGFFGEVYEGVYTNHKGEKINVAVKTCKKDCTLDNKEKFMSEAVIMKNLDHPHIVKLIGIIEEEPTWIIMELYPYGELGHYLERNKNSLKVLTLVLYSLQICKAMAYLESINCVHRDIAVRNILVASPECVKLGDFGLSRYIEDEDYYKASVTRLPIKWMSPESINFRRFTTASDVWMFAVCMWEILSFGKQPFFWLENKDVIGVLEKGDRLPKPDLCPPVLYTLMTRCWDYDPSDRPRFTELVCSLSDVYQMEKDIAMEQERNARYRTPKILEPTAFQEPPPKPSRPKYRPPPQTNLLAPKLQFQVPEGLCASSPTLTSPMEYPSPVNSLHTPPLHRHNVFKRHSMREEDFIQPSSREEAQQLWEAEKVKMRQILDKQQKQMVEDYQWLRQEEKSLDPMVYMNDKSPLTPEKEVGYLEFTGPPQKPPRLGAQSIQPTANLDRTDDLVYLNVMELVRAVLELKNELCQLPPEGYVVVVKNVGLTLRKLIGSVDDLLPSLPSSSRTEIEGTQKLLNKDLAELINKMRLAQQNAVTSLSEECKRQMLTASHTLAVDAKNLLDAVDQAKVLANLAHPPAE

[8] = biological target: Serine/threonine-protein kinase Nek6 (Homo sapiens) (UniProt Q9HC98); test: NEK6 DiscoveRx kinase panel; conditions: Compound concentration 1.0 uM
Chain of Serine/threonine-protein kinase Nek6 (Homo sapiens) (Q9HC98 whole entry): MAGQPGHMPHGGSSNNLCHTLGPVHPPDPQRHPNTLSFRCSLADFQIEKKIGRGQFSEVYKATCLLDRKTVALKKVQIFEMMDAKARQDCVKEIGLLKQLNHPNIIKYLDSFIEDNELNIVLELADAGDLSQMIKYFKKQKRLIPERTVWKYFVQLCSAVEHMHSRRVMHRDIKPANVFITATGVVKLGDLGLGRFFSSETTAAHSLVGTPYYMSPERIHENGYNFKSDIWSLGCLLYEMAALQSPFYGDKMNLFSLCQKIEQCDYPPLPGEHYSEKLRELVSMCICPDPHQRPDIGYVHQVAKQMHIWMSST

[9] = biological target: Mitogen-activated protein kinase 8 (Homo sapiens) (UniProt P45983); test: JNK1 DiscoveRx kinase panel; conditions: Compound concentration 1.0 uM
Chain of Mitogen-activated protein kinase 8 (Homo sapiens) (P45983 whole entry): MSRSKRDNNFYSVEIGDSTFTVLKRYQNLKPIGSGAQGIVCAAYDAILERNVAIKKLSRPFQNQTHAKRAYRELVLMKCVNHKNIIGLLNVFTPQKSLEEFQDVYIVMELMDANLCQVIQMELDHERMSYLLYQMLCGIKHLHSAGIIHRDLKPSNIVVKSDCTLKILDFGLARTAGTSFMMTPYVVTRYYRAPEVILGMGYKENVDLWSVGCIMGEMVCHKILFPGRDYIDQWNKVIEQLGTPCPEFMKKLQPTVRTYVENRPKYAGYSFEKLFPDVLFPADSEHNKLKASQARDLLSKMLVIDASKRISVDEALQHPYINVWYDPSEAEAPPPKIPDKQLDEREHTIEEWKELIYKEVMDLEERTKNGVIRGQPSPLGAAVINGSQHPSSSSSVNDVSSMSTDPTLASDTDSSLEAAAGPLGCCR

[10] = biological target: Serine/threonine-protein kinase NLK (Homo sapiens) (UniProt Q9UBE8); test: NLK DiscoveRx kinase panel; conditions: Compound concentration 1.0 uM
[11] = biological target: Kappa-type opioid receptor (Homo sapiens) (UniProt P41145); conditions: Compound concentration 10.0 uM
[12] = biological target: Histamine H1 receptor (Homo sapiens) (UniProt P35367); conditions: Compound concentration 10.0 uM
[13] = biological target: Serine/threonine-protein kinase N2 (Homo sapiens) (UniProt Q16513); test: PKN2 DiscoveRx kinase panel; conditions: Compound concentration 1.0 uM
[14] = biological target: Proto-oncogene tyrosine-protein kinase ROS (Homo sapiens) (UniProt P08922); test: ROS1 DiscoveRx kinase panel; conditions: Compound concentration 1.0 uM
[15] = biological target: Serine/threonine-protein kinase TAO1 (Homo sapiens) (UniProt Q7L7X3); test: TAOK1 DiscoveRx kinase panel; conditions: Compound concentration 1.0 uM
[16] = biological target: Serine/threonine-protein kinase ICK (Homo sapiens) (UniProt Q9UPZ9); test: ICK DiscoveRx kinase panel; conditions: Compound concentration 1.0 uM
[17] = biological target: Tyrosine-protein kinase ABL1 (Homo sapiens) (UniProt P00519); test: ABL1-nonphosphorylated DiscoveRx kinase panel; conditions: Compound concentration 1.0 uM
[18] = biological target: Ribosomal protein S6 kinase alpha-4 (Homo sapiens) (UniProt O75676); test: RPS6KA4(Kin.Dom.1-N-terminal) DiscoveRx kinase panel; conditions: Compound concentration 1.0 uM
Chain of Ribosomal protein S6 kinase alpha-4 (Homo sapiens) (O75676 whole entry, looked up): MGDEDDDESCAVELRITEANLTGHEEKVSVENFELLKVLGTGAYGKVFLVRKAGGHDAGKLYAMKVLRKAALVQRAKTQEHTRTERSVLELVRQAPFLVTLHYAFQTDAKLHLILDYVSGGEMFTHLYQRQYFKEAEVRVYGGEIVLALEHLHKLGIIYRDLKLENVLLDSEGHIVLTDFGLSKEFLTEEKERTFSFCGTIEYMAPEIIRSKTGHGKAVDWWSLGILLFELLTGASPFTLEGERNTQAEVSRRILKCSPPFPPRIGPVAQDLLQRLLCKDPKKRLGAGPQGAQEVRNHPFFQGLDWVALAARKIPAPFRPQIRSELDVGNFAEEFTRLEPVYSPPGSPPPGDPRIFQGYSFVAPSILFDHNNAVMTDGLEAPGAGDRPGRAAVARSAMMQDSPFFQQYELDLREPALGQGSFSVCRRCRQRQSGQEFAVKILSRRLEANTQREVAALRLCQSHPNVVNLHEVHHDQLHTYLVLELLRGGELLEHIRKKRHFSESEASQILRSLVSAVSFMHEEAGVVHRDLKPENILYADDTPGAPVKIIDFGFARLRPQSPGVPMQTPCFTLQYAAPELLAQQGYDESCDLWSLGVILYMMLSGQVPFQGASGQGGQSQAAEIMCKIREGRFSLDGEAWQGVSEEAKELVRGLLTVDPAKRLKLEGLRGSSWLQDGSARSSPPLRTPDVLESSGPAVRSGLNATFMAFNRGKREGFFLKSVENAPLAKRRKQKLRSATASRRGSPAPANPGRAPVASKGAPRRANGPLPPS

[19] = biological target: Cytoplasmic tyrosine-protein kinase BMX (Homo sapiens) (UniProt P51813); test: BMX DiscoveRx kinase panel; conditions: Compound concentration 1.0 uM
[20] = biological target: Beta-2 adrenergic receptor (Homo sapiens) (UniProt P07550); conditions: Compound concentration 10.0 uM
Chain of Beta-2 adrenergic receptor (Homo sapiens) (P07550 whole entry, looked up): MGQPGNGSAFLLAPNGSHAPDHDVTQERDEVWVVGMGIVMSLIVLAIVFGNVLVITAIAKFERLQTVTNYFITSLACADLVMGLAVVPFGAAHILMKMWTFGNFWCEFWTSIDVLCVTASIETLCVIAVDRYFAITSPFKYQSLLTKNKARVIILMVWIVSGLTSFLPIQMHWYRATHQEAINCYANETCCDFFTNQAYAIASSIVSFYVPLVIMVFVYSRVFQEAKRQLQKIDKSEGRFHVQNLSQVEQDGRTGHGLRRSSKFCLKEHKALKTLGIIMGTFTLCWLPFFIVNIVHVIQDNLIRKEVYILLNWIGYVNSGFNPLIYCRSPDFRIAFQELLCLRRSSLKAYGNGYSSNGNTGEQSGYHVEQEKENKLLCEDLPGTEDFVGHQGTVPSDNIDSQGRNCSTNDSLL

[21] = biological target: Mitogen-activated protein kinase kinase kinase 14 (Homo sapiens) (UniProt Q99558); test: NIK DiscoveRx kinase panel; conditions: Compound concentration 1.0 uM
[22] = biological target: GABA-A receptor; anion channel (Rattus norvegicus) (UniProt O09028+P15431+P18506+P18508+P19969+P20236+P23574+P23576+P28471+P28473+P30191+P62813+P63079+P63138+Q91ZM7+Q9ES14); conditions: Compound concentration 10.0 uM
[23] = biological target: 5-hydroxytryptamine receptor 1A (Homo sapiens, UniProt P08908); test: GPCRScan assay: inhibition of 5-HT1A; set-up: radioligand conc. used [nm] 0.5 – 1.0, parental cells stable CHO
[24] = biological target: Serine/threonine-protein kinase RIO3 (Homo sapiens) (UniProt O14730); test: RIOK3 DiscoveRx kinase panel; conditions: Compound concentration 1.0 uM
[25] = biological target: Alpha-1A adrenergic receptor (Homo sapiens) (UniProt P35348); conditions: Rattus norvegicus; Compound concentration 10.0 uM
[26] = biological target: Mitogen-activated protein kinase kinase kinase 15 (Homo sapiens) (UniProt Q6ZN16); test: MAP3K15 DiscoveRx kinase panel; conditions: Compound concentration 1.0 uM
[27] = biological target: Homeodomain-interacting protein kinase 3 (Homo sapiens) (UniProt Q9H422); test: HIPK3 DiscoveRx kinase panel; conditions: Compound concentration 1.0 uM
[28] = biological target: Myosin light chain kinase 2, skeletal/cardiac muscle (Homo sapiens) (UniProt Q9H1R3); test: MYLK2 DiscoveRx kinase panel; conditions: Compound concentration 1.0 uM
[29] = biological target: Serine/threonine-protein kinase 38 (Homo sapiens) (UniProt Q15208); test: NDR1 DiscoveRx kinase panel; conditions: Compound concentration 1.0 uM
[30] = biological target: Focal adhesion kinase 1 (Homo sapiens) (UniProt Q05397); test: FAK DiscoveRx kinase panel; conditions: Compound concentration 1.0 uM
[31] = biological target: Serine/threonine-protein kinase 4 (Homo sapiens) (UniProt Q13043); test: MST1 DiscoveRx kinase panel; conditions: Compound concentration 1.0 uM
[32] = biological target: Proto-oncogene tyrosine-protein kinase Src (Homo sapiens) (UniProt P12931); test: SRC DiscoveRx kinase panel; conditions: Compound concentration 1.0 uM
[33] = biological target: NT-3 growth factor receptor (Homo sapiens) (UniProt Q16288); test: TRKC DiscoveRx kinase panel; conditions: Compound concentration 1.0 uM
[34] = biological target: CDK4/Cyclin D3 (Homo sapiens) (UniProt P11802+P30281); test: CDK4-cyclinD3 DiscoveRx kinase panel; format: protein-complex assay; conditions: Compound concentration 1.0 uM
[35] = biological target: Homeodomain-interacting protein kinase 2 (Homo sapiens) (UniProt Q9H2X6); test: HIPK2 DiscoveRx kinase panel; conditions: Compound concentration 1.0 uM
[36] = biological target: Serine/threonine-protein kinase Nek4 (Homo sapiens) (UniProt P51957); test: NEK4 DiscoveRx kinase panel; conditions: Compound concentration 1.0 uM
[37] = biological target: Rhodopsin kinase GRK1 (Homo sapiens) (UniProt Q15835); test: GRK1 DiscoveRx kinase panel; conditions: Compound concentration 1.0 uM
[38] = biological target: Cyclin-dependent kinase-like 2 (Homo sapiens) (UniProt Q92772); test: CDKL2 DiscoveRx kinase panel; conditions: Compound concentration 1.0 uM
[39] = biological target: Melanocortin receptor 4 (Homo sapiens) (UniProt P32245); test: Melanocortin MC4 Eurofins-Panlabs radioligand binding assay; conditions: Compound concentration 10.0 uM
[40] = biological target: Casein kinase II subunit alpha' (Homo sapiens) (UniProt P19784); test: CSNK2A2 DiscoveRx kinase panel; conditions: Compound concentration 1.0 uM
[41] = biological target: Serine/threonine-protein kinase tousled-like 2 (Homo sapiens) (UniProt Q86UE8); test: TLK2 DiscoveRx kinase panel; conditions: Compound concentration 1.0 uM
Chain of Serine/threonine-protein kinase tousled-like 2 (Homo sapiens) (Q86UE8 whole entry, looked up): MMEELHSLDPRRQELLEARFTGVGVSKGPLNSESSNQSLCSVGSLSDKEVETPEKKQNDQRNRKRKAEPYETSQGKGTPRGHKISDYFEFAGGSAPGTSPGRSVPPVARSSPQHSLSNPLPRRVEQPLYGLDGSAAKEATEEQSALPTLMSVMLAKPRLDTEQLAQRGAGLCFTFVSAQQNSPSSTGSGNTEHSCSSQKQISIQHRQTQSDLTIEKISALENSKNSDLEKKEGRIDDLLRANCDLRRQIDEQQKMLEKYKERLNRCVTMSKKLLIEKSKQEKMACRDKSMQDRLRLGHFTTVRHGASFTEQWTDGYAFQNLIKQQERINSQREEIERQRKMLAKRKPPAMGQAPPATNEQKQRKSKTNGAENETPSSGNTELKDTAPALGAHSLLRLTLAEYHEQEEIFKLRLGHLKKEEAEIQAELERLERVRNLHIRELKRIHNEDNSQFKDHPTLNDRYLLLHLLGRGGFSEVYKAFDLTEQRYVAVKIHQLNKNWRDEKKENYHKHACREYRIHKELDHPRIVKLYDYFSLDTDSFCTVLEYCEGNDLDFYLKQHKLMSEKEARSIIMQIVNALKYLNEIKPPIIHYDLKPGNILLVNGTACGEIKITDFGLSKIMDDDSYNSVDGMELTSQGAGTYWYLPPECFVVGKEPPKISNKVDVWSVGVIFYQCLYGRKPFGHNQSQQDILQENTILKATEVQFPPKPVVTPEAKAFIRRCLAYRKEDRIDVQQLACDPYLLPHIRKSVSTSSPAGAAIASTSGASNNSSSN

[42] = biological target: 5-hydroxytryptamine receptor 2C (Homo sapiens) (UniProt P28335); conditions: Compound concentration 10.0 uM
[43] = biological target: Fibroblast growth factor receptor 1 (Homo sapiens) (UniProt P11362); test: FGFR1 DiscoveRx kinase panel; conditions: Compound concentration 1.0 uM
[44] = biological target: Serine/threonine-protein kinase WNK1 (Homo sapiens) (UniProt Q9H4A3); test: WNK1 DiscoveRx kinase panel; conditions: Compound concentration 1.0 uM
[45] = biological target: Serine/threonine-protein kinase 16 (Homo sapiens) (UniProt O75716); test: STK16 DiscoveRx kinase panel; conditions: Compound concentration 1.0 uM
[46] = biological target: Wee1-like protein kinase (Homo sapiens) (UniProt P30291); test: WEE1 DiscoveRx kinase panel; conditions: Compound concentration 1.0 uM
Chain of Wee1-like protein kinase (Homo sapiens) (P30291 whole entry, looked up): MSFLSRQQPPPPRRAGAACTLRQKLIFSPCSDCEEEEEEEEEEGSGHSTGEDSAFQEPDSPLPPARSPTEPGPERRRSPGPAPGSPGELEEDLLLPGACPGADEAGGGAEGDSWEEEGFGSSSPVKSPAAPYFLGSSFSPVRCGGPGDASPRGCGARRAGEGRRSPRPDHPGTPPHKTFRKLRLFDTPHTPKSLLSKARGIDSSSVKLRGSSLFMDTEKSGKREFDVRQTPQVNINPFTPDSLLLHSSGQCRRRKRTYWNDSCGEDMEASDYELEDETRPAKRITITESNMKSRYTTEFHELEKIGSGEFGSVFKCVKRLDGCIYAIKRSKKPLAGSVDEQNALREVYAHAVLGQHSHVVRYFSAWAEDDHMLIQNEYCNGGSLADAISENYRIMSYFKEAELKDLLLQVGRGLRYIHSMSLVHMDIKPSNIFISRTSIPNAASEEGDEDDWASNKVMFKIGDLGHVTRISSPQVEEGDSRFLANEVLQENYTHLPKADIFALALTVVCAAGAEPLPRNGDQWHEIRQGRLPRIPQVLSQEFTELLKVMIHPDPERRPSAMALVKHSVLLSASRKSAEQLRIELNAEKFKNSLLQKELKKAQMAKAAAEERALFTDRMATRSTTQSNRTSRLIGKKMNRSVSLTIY

[47] = biological target: Atypical kinase COQ8A, mitochondrial (Homo sapiens) (UniProt Q8NI60); test: ADCK3 DiscoveRx kinase panel; conditions: Compound concentration 1.0 uM
[48] = biological target: Death-associated protein kinase 2 (Homo sapiens) (UniProt Q9UIK4); test: DAPK2 DiscoveRx kinase panel; conditions: Compound concentration 1.0 uM

`COc1cnccc1Nc1nc(-c2nn(Cc3c(F)cc(OCCO)cc3F)c3ccccc23)ncc1OC` was tested, and the IC50 [1] was 0.029 µM (active), the residual activity [2] was 100% and the residual activity [3] was 100%. For the same compound, the residual activity [4] was 80%, the residual activity [5] was 100% and the residual activity [6] was 80%. For the same compound, the residual activity [7] was 95%, the residual activity [8] was 70% and the residual activity [9] was 79%. The residual activity [10] was 88%, the inhibition [11] was 15.2% and the inhibition [12] was 16.9%. For the same compound, the residual activity [13] was 97%, the residual activity [14] was 100% and the residual activity [15] was 100%. For the same compound, the residual activity [16] was 84%, the residual activity [17] was 87% and the residual activity [18] was 91%. For the same compound, the residual activity [19] was 100%, the inhibition [20] was 10% and the residual activity [21] was 100%. For the same compound, the inhibition [22] was 7%, the Ki [23] was 9.44 µM and the residual activity [24] was 90%. For the same compound, the inhibition [25] was 8%, the residual activity [26] was 87% and the residual activity [27] was 100%. The residual activity [28] was 69%, the residual activity [29] was 98% and the residual activity [30] was 88%. The residual activity [31] was 100%, the residual activity [32] was 100% and the residual activity [33] was 98%. For the same compound, the residual activity [34] was 100%, the residual activity [35] was 100% and the residual activity [36] was 99%. For the same compound, the residual activity [37] was 100%, the residual activity [38] was 90% and the inhibition [39] was 10%. The residual activity [40] was 48%, the residual activity [41] was 96% and the inhibition [42] was 21%. It also gave a residual activity [43] of 87%, a residual activity [44] of 85% and a residual activity [45] of 65%. For the same compound, the residual activity [46] was 100%, the residual activity [47] was 98% and the residual activity [48] was 85%.
